We go through 32 molecules from PMC8539145, “Function and Characterization Analysis of BodoOBP8 from Bradysia odoriphaga (Diptera: Sciaridae) in the Recognition of Plant Volatiles and Sex Pheromones” (Insects, 2021).

Values joined by “and” are separate entries in the source; they are usually repeats but may differ in a detail not shown here. Equal entries are not always repeated. Where two headings read alike, the source gives them in different places.

In the assay the target is BodoOBP8 (Bradysia odoriphaga, UniProt A0A2S0X9G3). The assay is described as follows: Fluorescence competitive binding assay (1-NPN probe) with recombinant BodoOBP8. On the procedure:
For the binding assays, all test ligands (Table S1) were dissolved in methanol, and N-phenyl-1-naphthylamine (1-NPN) was used as a fluorescent probe.

[1] abbreviates: recombinant BodoOBP8, calculated from IC50 of 1-NPN displacement, read-out: Ki.
[2] abbreviates: recombinant BodoOBP8, displacement of 1-NPN, read-out: IC50.
Setting [3] is: Ki, recombinant BodoOBP8, calculated from IC50 of 1-NPN displacement.
Setting [4] is: pH 7.4, Figure 3B, read-out: Ki.

Sequence of BodoOBP8 (A0A2S0X9G3 entry or part of it): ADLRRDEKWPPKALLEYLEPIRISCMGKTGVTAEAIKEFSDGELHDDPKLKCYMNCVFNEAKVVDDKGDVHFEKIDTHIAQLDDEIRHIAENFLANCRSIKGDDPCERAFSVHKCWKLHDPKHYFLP

`CC12CCC(CC1)C(C)(C)O2` [1,8-Cineole]: the Ki (as a rule, a measure of affinity in units of concentration, obtained from inhibition or displacement) under setting [1] is > 50 µM. Further, the IC50 (commonly the midpoint of a concentration-inhibition curve) under setting [2] is > 50 µM.
On to `c1ccc(Nc2cccc3ccccc23)cc1` [1-NPN, N-phenyl-1-naphthylamine, reference compound], for which the Kd – broadly, the free concentration of one partner at which half of the binding sites on the other are occupied at equilibrium, for simple one-to-one binding – came to 2.21 µM.
As to `CCCCC(C)=O` [2-Hexanone], the concentration for half-maximal inhibition (IC50) is > 50 µM. In addition, the inhibitory constant (Ki) under setting [3] is > 50 µM.
For `C=C(C)[C@H]1CC=C(C)CC1` [(R)-(+)-Limonene], under setting [1], the Ki is > 50 µM. Moreover, the half-inhibitory concentration (IC50) under setting [2] was > 50 µM.
Turning to `CC(=O)c1ccccc1` [Acetophenone], under setting [1], the Ki is > 50 µM. For the same molecule, the IC50 under setting [2] is > 50 µM.
With `O=Cc1ccccc1` [Benzaldehyde], the IC50 was > 50 µM. In addition, the Ki under setting [3] was > 50 µM.
`CCCCOC(=O)CCC(C)=O` [Butyl levulinate]: the Ki under setting [1] was > 50 µM. Under setting [2], the IC50 is > 50 µM.
In the case of `Cc1ccc(C(C)C)cc1O` [Carvacrol], the half-inhibitory concentration (IC50) is > 50 µM. Besides, the inhibition constant (Ki) under setting [3] was > 50 µM.
For `CC(C)=CCCC(C)CCO` (stereo not drawn) [Citronellol], the Ki under setting [1] is > 50 µM. For the same molecule, under setting [2], the 50% inhibitory concentration (IC50) was > 50 µM.
Turning to `CCCCCCCCCC=O` [Decanal], the inhibitory constant (Ki) under setting [1] is > 50 µM. Also, the IC50 under setting [2] was > 50 µM.
In the case of `C=CCSSCC=C` [Diallyl disulfide], the concentration for half-maximal inhibition (IC50) was 10 µM. The Ki (Ki, pH 7.4, Figure 3B) amounted to 4.04 µM. Moreover, under setting [3], the Ki is 6.73 µM. The Ki (recombinant BodoOBP8, calculated from IC50 of 1-NPN displacement) is < 10 µM.
For `CCCCCCCCCCCC` [Dodecane], the inhibition constant (Ki) under setting [1] was > 50 µM. Moreover, the IC50 under setting [2] is > 50 µM.
Turning to `CCCCCCCCCCCC=O` [Dodecyl aldehyde], under setting [1], the inhibitory constant (Ki) is > 50 µM. The IC50 under setting [2] was > 50 µM.
With `CCCCCCC=O` [Heptanal], under setting [1], the Ki was > 50 µM. Further, under setting [2], the IC50 is > 50 µM.
In the case of `CCCCCCCCCCCCCCCC` [Hexadecane], under setting [1], the Ki is > 50 µM. Further, the IC50 under setting [2] was > 50 µM.
For the molecule `C=CC(C)(O)CCC=C(C)C` (stereo not drawn) [Linalool], the 50% inhibitory concentration (IC50) was > 50 µM. Moreover, the inhibitory constant (Ki) under setting [3] is > 50 µM.
On to `C=CCSSC` [Methyl allyl disulfide], for which the Ki under setting [4] was 6.73 µM. In addition, the IC50 under setting [2] worked out at 8 µM.
Take `COC(=O)Cc1ccccc1` [Methyl phenylacetate]: the half-inhibitory concentration (IC50) is > 50 µM. In addition, the Ki under setting [3] was > 50 µM.
Regarding `COC(=O)c1ccccc1O` [Methyl salicylate], the IC50 was > 50 µM. Also, the Ki under setting [3] was > 50 µM.
Take `CCCCCCCCC=O` [Nonanal]: the Ki under setting [1] was > 50 µM. The IC50 under setting [2] was > 50 µM.
For `CCCCCCCCC` [Nonane], the Ki under setting [1] was > 50 µM. Under setting [2], the IC50 is > 50 µM.
`C=CC(C)=CCC=C(C)C` [Ocimene]: under setting [1], the Ki was > 50 µM. Besides, the IC50 under setting [2] is > 50 µM.
Consider `CCCCCCCC=O` [Octanal], for which, under setting [1], the inhibitory constant (Ki) was > 50 µM. In addition, the IC50 under setting [2] was > 50 µM.
In the case of `CCCCCCCCCCCCCC` [Tetradecane], the inhibition constant Ki under setting [1] was > 50 µM. The IC50 under setting [2] was > 50 µM.
As to `CCCCC=O` [Valeric aldehyde], the inhibitory constant (Ki) under setting [1] was > 50 µM. Under setting [2], the half-inhibitory concentration (IC50) is > 50 µM.
With `CC/C=C\CCO` [cis-3-Hexen-1-ol], the IC50 is > 50 µM. Besides, the Ki under setting [3] is > 50 µM.
Take `CCCCCCCCCCCCCCCCC` [n-Heptadecane]: the Ki runs as follows: under setting [4], 4.04 µM; under setting [1], 4.04 µM and < 10 µM. In addition, the IC50 under setting [2] was determined as 6 µM.
For the molecule `CC(=O)/C=C/C1=C(C)CCCC1(C)C` [ß-Ionone], the Ki under setting [1] was > 50 µM. In addition, under setting [2], the 50% inhibitory concentration (IC50) was > 50 µM.
With `C=C1CC/C=C(/C)CC[C@@H]2[C@@H]1CC2(C)C` [ß-caryophyllene], the inhibition constant Ki under setting [1] is > 50 µM. In addition, the concentration for half-maximal inhibition (IC50) under setting [2] was > 50 µM.
Take `C=C1CCC2CC1C2(C)C` (stereo not drawn) [ß-pinene]: under setting [1], the inhibition constant (Ki) was > 50 µM. For the same molecule, the half-inhibitory concentration (IC50) under setting [2] was > 50 µM.
As for `C/C1=C\CC/C(C)=C/CC(C)(C)/C=C/C1` [α-Humulene], the inhibition constant (Ki) under setting [1] is > 50 µM. For the same molecule, under setting [2], the IC50 is > 50 µM.
For `c1ccc2[nH]ccc2c1` [(H-11)Indole, Indole], the concentration for half-maximal inhibition (IC50) is > 50 µM. Besides, under setting [3], the inhibition constant (Ki) is > 50 µM.
